In PMC6076408, “Differential modulation of human GABAC-ρ1 receptor by sulfur-containing compounds structurally related to taurine” (BMC Neuroscience, 2018):

Columns and labels:
Type in all cases: cell-based
human GABAC-ρ1 receptor [1] = molecular target: T1, human GABAC-ρ1 receptor (Homo sapiens, UniProt P24046); experiment: Two-microelectrode voltage-clamp: currents activated by GABA or SCC-tau in oocytes expressing GABAC-ρ1R; settings: for Hill coefficient (nH) / EC50: agonist alone; for Hill coefficient (nH): dose-response relationship; for EC50: Xenopus laevis oocytes clamped at −60 mV; for activation time of the currents (τact) / deactivation time (τdeac): currents activated by GABA, Hypo or Homo
T1 construct: expressed in transfected cells; host or cells: Xenopus laevis oocytes (mRNA injection)
T1 sequence (P24046 22-479): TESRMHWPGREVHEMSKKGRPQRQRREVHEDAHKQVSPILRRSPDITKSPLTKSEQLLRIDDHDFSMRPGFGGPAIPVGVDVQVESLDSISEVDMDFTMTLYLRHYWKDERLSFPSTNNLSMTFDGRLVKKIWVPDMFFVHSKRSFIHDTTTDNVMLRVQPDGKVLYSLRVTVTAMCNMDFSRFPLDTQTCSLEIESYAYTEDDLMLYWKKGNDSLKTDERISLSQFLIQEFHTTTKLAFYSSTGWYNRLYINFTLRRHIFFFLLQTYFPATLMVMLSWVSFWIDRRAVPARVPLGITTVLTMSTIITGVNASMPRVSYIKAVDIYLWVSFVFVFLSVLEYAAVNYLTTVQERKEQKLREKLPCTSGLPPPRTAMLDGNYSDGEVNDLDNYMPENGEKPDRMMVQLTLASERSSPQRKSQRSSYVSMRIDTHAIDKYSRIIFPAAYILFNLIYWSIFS
Protocol: (§1) All the animals were handled in accordance with guidelines of the National Institutes of Health Guide for Care and Use of Laboratory Animals and with the approval of the Institutional Animal Care and Use Committee of the National University of Mexico. We used Ethyl 3-aminobenzoate methanesulfonate (MS-222) at 0.17% for 30 min, to anesthetize the Xenopus laevis frogs. The oocytes were manually removed and enzymatically defolliculated at room temperature using collagenase type I (0.3 μg/μl) for 45 min. Later, oocytes were kept in Barth’s medium (in mM): 88, NaCl; 1, KCl; 0.33, […]; 0.41, CaCl2; 0.82, MgSO4; 2.4, NaHCO3; 5, HEPES; pH 7.4 and 0.1 mg/ml gentamicin sulfate. After 24 h, 0.5 μg/μl of human GABAC-ρ1R mRNA was injected in vegetal hemisphere of the oocyte, and electrophysiological recordings were obtained 2–3 days after injection.
(§2) Oocytes were placed in a chamber, with a volume of 500 μl, and impaled with two microelectrodes previously filled with 3 M KCl (0.5–2.5 MΩ) and clamped at − 60 mV. […] All recordings were done at 20–23 °C in a chamber continuously perfused at 5–10 ml/min of Ringer solution (in mM): 115, NaCl; 2, KCl; 1.8, CaCl2; 5, HEPES, pH 7.4. All drugs were purchased from SIGMA-ALDRICH (San Louis Missouri, USA). […] The pH of all solutions was adjusted to 7.4.
Results are reported as mean ± S.E. of the values obtained from several cells, each value being the average of measurements in different cells. Data from each experiment were collected from at least seven oocytes. Agonist concentration–response curves were constructed by measuring the maximum response evoked by each agonist concentration. […] The half-inhibitory concentration (IC50) of Homo was estimated by fitting the following equation: A=Amax/(1+10^[[agonist]-logEC50) . Differences among groups were statistically analyzed by ANOVA and Tukey–Kramer post-test, and were considered significant when P < 0.05. […] Differences between groups were statistically analyzed by ANOVA and a Tukey–Kramer post-test, and were considered significant at the level P < 0.05.

human GABAC-ρ1 receptor [2] = molecular target: T1, human GABAC-ρ1 receptor; experiment: Voltage-clamp: modulation of GABA-induced currents by co-applied SCC-tau; settings: for EC50: EC50 (potentiation of GABA current); for IC50: read-out: IC50 (decrease of GABA-activated current)
Protocol: as §1
as §2, with “Membrane currents elicited by GABA and SCC-tau were recorded using the two-microelectrode voltage-clamp technique. Oocytes” for “Oocytes”
(§3) Results are reported as mean ± S.E. of the values obtained from several cells, each value being the average of measurements in different cells. Data from each experiment were collected from at least seven oocytes. Agonist concentration–response curves were constructed by measuring the maximum response evoked by each agonist concentration. […] The half-inhibitory concentration (IC50) of Homo was estimated by fitting the following equation: A=Amax/(1+10^[[agonist]-logEC50) . Differences among groups were statistically analyzed by ANOVA and Tukey–Kramer post-test, and were considered significant when P < 0.05. Control responses to GABA were obtained before and after each drug application to account for possible shifts in the amplitude of the control current. To determine the time constants for the activation (τact) and deactivation (τdeac) of GABA-, Homo- and Hypo-currents responses, a decay function of the form: I(τ) = exp(− t/τ d) + C, where I is the current and t is time, was fit to the experimental data (Origin 6.0 software; Northampton, MA). Differences between groups were statistically analyzed by ANOVA and a Tukey–Kramer post-test, and were considered significant at the level P < 0.05.

human GABAC-ρ1 receptor [3] = molecular target: T1, human GABAC-ρ1 receptor; experiment: Voltage-clamp: inhibition of GABA- and SCC-tau-induced currents by TPMPA and picrotoxin
Protocol: as §1
as §2, with “Membrane currents elicited by GABA and SCC-tau were recorded using the two-microelectrode voltage-clamp technique. Oocytes” for “Oocytes”
as §3

[4] = receptor activated by 3 µM GABA
[5] = receptor activated by 70 µM Homo
[6] = receptor activated by 3 mM Hypo

| Compound | Hill coefficient (nH) (human GABAC-ρ1 receptor [1]) | EC50 (human GABAC-ρ1 receptor [1]) [µM] | activation time of the currents (τact) (human GABAC-ρ1 receptor [1]) [min] | deactivation time (τdeac) (human GABAC-ρ1 receptor [1]) [min] | IC50 (human GABAC-ρ1 receptor [3]; [4]) [µM] | IC50 (human GABAC-ρ1 receptor [3]; [5]) [µM] | IC50 (human GABAC-ρ1 receptor [3]; [6]) [µM] | further results |
| --- | --- | --- | --- | --- | --- | --- | --- | --- |
| NCCS(=O)O [Hypo, 2-Aminoethanesulfinic acid] | 2.2 | 3000 ± 1500 | 1.5 ± 0.1 | 3.4 ± 1.1 | – | – | – | EC50 (human GABAC-ρ1 receptor [2]; co-applied with 1.5 µM GABA): 87 ± 1.5 µM; EC50 (human GABAC-ρ1 receptor [2]; co-applied with 3 µM GABA): 170 ± 1.7 µM; EC50 (human GABAC-ρ1 receptor [2]; co-applied with 6 µM GABA): 480 ± 2.1 µM |
| picrotoxin | – | – | – | – | 100 ± 0.1 | 105 ± 0.3 | 100 ± 0.8 | – |
| NCCCC(=O)O [GABA, γ-aminobutyric acid] | 1.5 | – | 1 ± 0.2 | 1.7 ± 0.5 | – | – | – | – |
| CP(=O)(O)C1=CCNCC1 [TPMPA, Methyl(1,2,5,6-tetrahydropyridine-4-yl) phosphinic acid] | – | – | – | – | 1.2 ± 0.1 | 1.4 ± 0.1 | 2 ± 0.2 | – |
| O=S(=O)(O)CCO [IA, 2-hydroxyethanesulfonic acid] | – | – | – | – | – | – | – | activation of current (effect on receptor) (human GABAC-ρ1 receptor [1]; compound perfused alone at the concentrations tested): did not show any affect; effect on GABA-induced currents (human GABAC-ρ1 receptor [2]; co-application with GABA, data not shown): did not observe any effect |
| NCCCS(=O)(=O)O [Homo, 3-Aminopropane-1-sulfonic acid] | 1.0 | 70 ± 1.1 | 1.8 ± 0.2 | 6.7 ± 2.2 | – | – | – | IC50 (human GABAC-ρ1 receptor [2]; co-applied with 1.5 µM GABA): 40 ± 1 µM; IC50 (human GABAC-ρ1 receptor [2]; co-applied with 3 µM GABA): 90 ± 1.5 µM; IC50 (human GABAC-ρ1 receptor [2]; co-applied with 6 µM GABA): 410 ± 2.9 µM |
